The values below come from patent US11738097B2, “Curcuminoid chemotherapeutic drug carrier composition” (Imam Abdulrahman Bin Faisal University, priority 2018, dated 2023).

The subject of series [1] is MCF7 cells. Briefly: Cell viability MTT assay. Type of series: cell-based, human. The note with it: 10, 20, 40, 80, 100 μg/ml, 24 h. As to the method:
(§1) Materials and Methods/Cell cultures: In this study, a human mammary adenocarcinoma cell line, MCF7, was used for in vitro testing. MCF7 cells were maintained in DMEM (Dulbecco's Modified Eagle Medium) (Gibco, life technologies) supplemented with 10% heat inactivated fetal bovine serum (HI-FBS) (Gibco, life technology), 1% Penicillin Streptomycin (100×-Gibco, life technology), and 1% MEM NEAA (MEM non-essential amino acids) (100×-Gibco, life technology). Cells were kept in a humidified incubator at 37° C. with 5% CO2. For the experimental setup, MCF7 cells were seeded on a 96-well plate at a density of 10,000 cells/well. On the next day, cells were shifted to the starve media (0.5% HI-FBS containing media) for 24 h before treatment. […]
(§2) Cell viability MTT Assay: The viability of cells was tested using 3-(4,5-dimethylthiazol-2-yl)-2,5-diphenyltetrazolium bromide (MTT) assay. […] The change in color intensity was measured at 570 nm wavelength using SYNERGY-neo2 BioTek ELISA reader. […] The reading of each triplicate was averaged and subtracted from the averaged MTT background control reading. […]
(§3) To investigate the cytotoxic effects of curcumin-loaded/Fe2O3 impregnated mesocellular foam silica nanoparticles, the inventors assessed cell viability using the MTT assay on MCF7 cells. […]
On the technique in general: Tetrazolium dyes change colour on reduction, which living cells bring about.

Series [2] can be described thus: Cell viability MTT assay. Type of series: cell-based, human. The note with it: human, MCF7 cells, maintained throughout the different concentrations (10-100 μg/ml), curcumin stock 390 μg/ml. The protocol:
as §1, §2, §3

What is called viability is a read-out of living cells in per cent, often relative to untreated cells.

In the case of `COc1cc(/C=C/C(=O)CC(=O)/C=C/c2ccc(O)c(OC)c2)ccc1O` [Curcumin], the “effect on cell viability (in words)” value in series [1] was “significantly reduced cell viability”. In series [2], the viability at 24 h came to 66.6%.
